Assay results from patent publication US11382918B2, “Methods for treating Huntington's Disease” (PTC Therapeutics, Inc., priority 2017, dated 2022).
Counter-ions that a name gives are not always drawn.

Tested on: Endogenous Huntingtin Protein (HTT)
Test: Endogenous Huntingtin Protein Assay (ELISA-based MSD electrochemiluminescence)
Type: cell-based
Conditions: Table 1
Outline: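 MSD electrochemiluminescence sandwich ELISA for endogenous HTT: sample lysates captured overnight at 4 °C on MW1 (expanded polyglutamine) or MAB2166 antibody. Detection used rabbit monoclonal #5656S, then goat anti-rabbit SULFO-TAG antibody, each 1 h at room temperature.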

| IC50 | SMILES |
| --- | --- |
| 3 to 33 µM | O=c1cc(-c2cnn(C3CCCCO3)c2)nc2ccc(N3CCNCC3)cn12 (stereo not shown) [compound 854, 7-(piperazin-1-yl)-2-[1-(tetrahydro-2H-pyran-2-yl)-1H-pyrazol-4-yl]-4H-pyrido[1,2-a]pyrimidin-4-one] |
| 1 to 3 µM | Cc1cc2cc(-c3cc(=O)n4cc(N5CCN[C@@H](C)C5)ccc4n3)ccn2n1 [compound 856, 7-[(3S)-3-methylpiperazin-1-yl]-2-(2-methylpyrazolo[1,5-a]pyridin-5-yl)-4H-pyrido[1,2-a]pyrimidin-4-one hydrochloride (1:2)] |
| 1 to 3 µM | Cc1cc2cc(-c3cc(=O)n4cc(N5CCNCC5)ccc4n3)ccn2n1 [compound 859, 2-(2-methylpyrazolo[1,5-a]pyridin-5-yl)-7-(piperazin-1-yl)-4H-pyrido[1,2-a]pyrimidin-4-one hydrochloride (1:2)] |
| < 0.1 µM | CCN1CCC(c2cn3c(=O)cc(-c4ccc5nn(C)cc5c4)nc3c(C)n2)CC1 [compound 864, 7-(1-ethylpiperidin-4-yl)-9-methyl-2-(2-methyl-2H-indazol-5-yl)-4H-pyrazino[1,2-a]pyrimidin-4-one] |
| 3 to 33 µM | Cc1cc(C2=CC(C)(C)NC(C)(C)C2)cn2c(=O)cc(-c3ccc4nn(C)cc4c3)nc12 [compound 865, 9-methyl-2-(2-methyl-2H-indazol-5-yl)-7-(2,2,6,6-tetramethyl-1,2,3,6-tetrahydropyridin-4-yl)-4H-pyrido[1,2-a]pyrimidin-4-one] |
| 3 to 33 µM | Cc1cc(-c2cc(=O)n3cc(C4CC(C)(C)NC(C)(C)C4)cc(C)c3n2)cc2cn(C)nc12 [compound 866, 2-(2,7-dimethyl-2H-indazol-5-yl)-9-methyl-7-(2,2,6,6-tetramethylpiperidin-4-yl)-4H-pyrido[1,2-a]pyrimidin-4-one] |
| 3 to 33 µM | Cc1cc(C2CC(C)(C)NC(C)(C)C2)cn2c(=O)cc(-c3ccc4nn(C)cc4c3)nc12 [compound 867, 9-methyl-2-(2-methyl-2H-indazol-5-yl)-7-(2,2,6,6-tetramethylpiperidin-4-yl)-4H-pyrido[1,2-a]pyrimidin-4-one] |
| 1 to 3 µM | Cc1cn2cc(-c3cc(=O)n4cc(N5CCN(C)CC5)ccc4n3)cc(C)c2n1 [compound 868, 2-(2,8-dimethylimidazo[1,2-a]pyridin-6-yl)-7-(4-methylpiperazin-1-yl)-4H-pyrido[1,2-a]pyrimidin-4-one] |
| < 0.1 µM | Cc1nc(C2CCNCC2)cn2c(=O)cc(-c3cc(F)c4nn(C)cc4c3)nc12 [compound 869, 2-(7-fluoro-2-methyl-2H-indazol-5-yl)-9-methyl-7-(piperidin-4-yl)-4H-pyrazino[1,2-a]pyrimidin-4-one] |
| < 0.1 µM | Cc1cn2nc(-c3cc(=O)n4cc(C5CCNCC5)nc(C)c4n3)ccc2n1 [compound 870, 9-methyl-2-(2-methylimidazo[1,2-b]pyridazin-6-yl)-7-(piperidin-4-yl)-4H-pyrazino[1,2-a]pyrimidin-4-one hydrochloride (1:2)] |
| < 0.1 µM | Cc1cc(-c2cc(=O)n3cc(C4CCNCC4)nc(C)c3n2)cc2cn(C)nc12 [compound 871, 2-(2,7-dimethyl-2H-indazol-5-yl)-9-methyl-7-(piperidin-4-yl)-4H-pyrazino[1,2-a]pyrimidin-4-one hydrochloride (1:1)] |
| < 0.1 µM | CCN1CCC(c2cn3c(=O)cc(-c4cc(F)c5nn(C)cc5c4)nc3c(C)n2)CC1 [compound 872, 7-(1-ethylpiperidin-4-yl)-2-(7-fluoro-2-methyl-2H-indazol-5-yl)-9-methyl-4H-pyrazino[1,2-a]pyrimidin-4-one] |
| 0.1 to 0.5 µM | CCN1CCC(c2cn3c(=O)cc(-c4ccc5nc(C)cn5n4)nc3c(C)n2)CC1 [compound 873, 7-(1-ethylpiperidin-4-yl)-9-methyl-2-(2-methylimidazo[1,2-b]pyridazin-6-yl)-4H-pyrazino[1,2-a]pyrimidin-4-one] |
| 0.1 to 0.5 µM | CCN1CCC(c2cn3c(=O)cc(-c4cc(C)c5nn(C)cc5c4)nc3c(C)n2)CC1 [compound 874, 2-(2,7-dimethyl-2H-indazol-5-yl)-7-(1-ethylpiperidin-4-yl)-9-methyl-4H-pyrazino[1,2-a]pyrimidin-4-one hydrochloride (1:1)] |
| < 0.1 µM | Cc1cn2cc(-c3cc(=O)n4cc(C5CCNCC5)nc(C)c4n3)cc(F)c2n1 [compound 875, 2-(8-fluoro-2-methylimidazo[1,2-a]pyridin-6-yl)-9-methyl-7-(piperidin-4-yl)-4H-pyrazino[1,2-a]pyrimidin-4-one hydrochloride (1:2)] |
| 1 to 3 µM | CCN1CCC(c2cn3c(=O)cc(-c4cc5c(C)nc(C)cn5c4)nc3c(C)n2)CC1 [compound 876, 2-(1,3-dimethylpyrrolo[1,2-a]pyrazin-7-yl)-7-(1-ethylpiperidin-4-yl)-9-methyl-4H-pyrazino[1,2-a]pyrimidin-4-one] |
| < 0.1 µM | CCN1CCC(c2cn3c(=O)cc(-c4cc(F)c5nc(C)cn5c4)nc3c(C)n2)CC1 [compound 877, 7-(1-ethylpiperidin-4-yl)-2-(8-fluoro-2-methylimidazo[1,2-a]pyridin-6-yl)-9-methyl-4H-pyrazino[1,2-a]pyrimidin-4-one] |

| SMILES | IC50 |
| --- | --- |
| Cc1cc(N(C)C2CC(C)(C)NC(C)(C)C2)cn2c(=O)cc(-c3ccc4nn(C)cc4c3)nc12 [compound 853, 9-methyl-2-(2-methyl-2H-indazol-5-yl)-7-[methyl(2,2,6,6-tetramethylpiperidin-4-yl)amino]-4H-pyrido[1,2-a]pyrimidin-4-one] | 3 to 33 µM |
| O=c1cc(-c2cn[nH]c2)nc2ccc(N3CCNCC3)cn12 [compound 855, 7-(piperazin-1-yl)-2-(1H-pyrazol-4-yl)-4H-pyrido[1,2-a]pyrimidin-4-one hydrochloride (1:1)] | 3 to 33 µM |
| Cc1cc2cc(-c3cc(=O)n4cc(C5=CCNCC5)ccc4n3)ccn2n1 [compound 857, 2-(2-methylpyrazolo[1,5-a]pyridin-5-yl)-7-(1,2,3,6-tetrahydropyridin-4-yl)-4H-pyrido[1,2-a]pyrimidin-4-one] | 0.5 to 1 µM |
| CCN1CC=C(c2ccc3nc(-c4ccn5nc(C)cc5c4)cc(=O)n3c2)CC1 [compound 858, 7-(1-ethyl-1,2,3,6-tetrahydropyridin-4-yl)-2-(2-methylpyrazolo[1,5-a]pyridin-5-yl)-4H-pyrido[1,2-a]pyrimidin-4-one] | 1 to 3 µM |
| Cc1cc(-c2cc(=O)n3cc(C4=CCNCC4)ccc3n2)nc2cnn(C)c12 [compound 860, 2-(1,7-dimethyl-1H-pyrazolo[4,3-b]pyridin-5-yl)-7-(1,2,3,6-tetrahydropyridin-4-yl)-4H-pyrido[1,2-a]pyrimidin-4-one hydrochloride (1:2)] | 3 to 33 µM |
| Cc1nc(-c2cc(=O)n3cc(C4=CCNCC4)ccc3n2)cc2cnn(C)c12 [compound 861, 2-(1,7-dimethyl-1H-pyrazolo[3,4-c]pyridin-5-yl)-7-(1,2,3,6-tetrahydropyridin-4-yl)-4H-pyrido[1,2-a]pyrimidin-4-one hydrochloride (1:2)] | 3 to 33 µM |
| Cc1nc(-c2cc(=O)n3cc(C4=CCNCC4)ccc3n2)cc2cn(C)nc12 [compound 862, 2-(2,7-dimethyl-2H-pyrazolo[3,4-c]pyridin-5-yl)-7-(1,2,3,6-tetrahydropyridin-4-yl)-4H-pyrido[1,2-a]pyrimidin-4-one hydrochloride (1:2)] | 1 to 3 µM |
| Cc1cc(-c2cc(=O)n3cc(C4=CCNCC4)ccc3n2)nc2cn(C)nc12 [compound 863, 2-(2,7-dimethyl-2H-pyrazolo[4,3-b]pyridin-5-yl)-7-(1,2,3,6-tetrahydropyridin-4-yl)-4H-pyrido[1,2-a]pyrimidin-4-one hydrochloride (1:2)] | 1 to 3 µM |
